Laboratory results from the supplement of paper PMC10307832.

Tests used:
Assay in all cases: relative viability (nuclei count vs DMSO), 5 days (fraction); higher = more cells survive
[1] = test system: NCI-H358
How it was run: (§1)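 Lung cancer cell lines in 1536-well plates were dosed by pin tool the day after seeding, either with one drug alone or with a fixed anchor-drug dose plus five library-drug doses (not always all listed) in √10 steps. After 5 days, cells were fixed and their nuclei stained in one step (final 0.05% Triton X-100, 1% formaldehyde, 1 ug/ml Hoechst), then counted on 4× images. Relative viability is the nuclei count in treated wells divided by that in vehicle wells. Values are medians of duplicate plates.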

[2] = test system: NCI-H650
How it was run: as §1

[3] = test system: NCI-H838
How it was run: as §1

[4] = test system: NCI-H1792
How it was run: as §1

[5] = test system: SK-MES-1
How it was run: as §1

[6] = test system: NCI-H596
How it was run: as §1

[7] = test system: HARA
How it was run: as §1

[8] = test system: 201T
How it was run: as §1

[9] = test system: EKVX
How it was run: as §1

[10] = test system: COR-L23
How it was run: as §1

[11] = test system: HCC-827
How it was run: as §1

[12] = test system: BEN
How it was run: as §1

[13] = test system: NCI-H1437
How it was run: as §1

[14] = test system: A-427
How it was run: as §1

[15] = test system: HCC-15
How it was run: as §1

[16] = test system: HCC-44
How it was run: as §1

[17] = test system: NCI-H1975
How it was run: as §1

[18] = test system: NCI-H23
How it was run: as §1

[19] = test system: NCI-H1666
How it was run: as §1

[20] = test system: NCI-H441
How it was run: as §1

## COc1nc(C)cnc1NS(=O)(=O)c1cccnc1-c1ccc(-c2nnco2)cc1 [Zibotentan] + C[C@]1(O)C[C@@H](c2nc(-c3ccc4ccc(-c5ccccc5)nc4c3)c3c(N)nccn32)C1 [Linsitinib] (partner 1 µM)
[1]; first compound 0.08 µM
  relative viability: 0.782
[1]; first compound 0.8 µM
  relative viability: 0.778
[1]; first compound 2.53 µM
  relative viability: 0.805
[2]; first compound 0.08 µM
  relative viability: 1
[2]; first compound 0.253 µM
  relative viability: 0.676
[2]; first compound 0.8 µM
  relative viability: 1.02
[2]; first compound 2.53 µM
  relative viability: 0.881
[3]; first compound 0.08 µM
  relative viability: 1.02
[3]; first compound 0.253 µM
  relative viability: 0.957
[3]; first compound 0.8 µM
  relative viability: 1
[3]; first compound 2.53 µM
  relative viability: 0.959
[4]; first compound 0.08 µM
  relative viability: 0.426
[4]; first compound 0.253 µM
  relative viability: 0.448
[4]; first compound 0.8 µM
  relative viability: 0.396
[4]; first compound 2.53 µM
  relative viability: 0.556
[5]; first compound 0.08 µM
  relative viability: 1.12
[5]; first compound 0.253 µM
  relative viability: 1
[5]; first compound 0.8 µM
  relative viability: 1.05
[5]; first compound 2.53 µM
  relative viability: 1.14
[6]; first compound 0.08 µM
  relative viability: 1.23
[6]; first compound 0.253 µM
  relative viability: 1.08
[6]; first compound 0.8 µM
  relative viability: 1.03
[6]; first compound 2.53 µM
  relative viability: 1.11
[7]; first compound 0.08 µM
  relative viability: 1.24
[7]; first compound 0.253 µM
  relative viability: 0.945
[7]; first compound 0.8 µM
  relative viability: 0.955
[7]; first compound 2.53 µM
  relative viability: 0.902
[8]; first compound 0.08 µM
  relative viability: 1
[8]; first compound 0.253 µM
  relative viability: 1.02
[8]; first compound 0.8 µM
  relative viability: 1.01
[8]; first compound 2.53 µM
  relative viability: 1.13
[9]; first compound 0.08 µM
  relative viability: 1.02
[9]; first compound 0.253 µM
  relative viability: 1.02
[9]; first compound 0.8 µM
  relative viability: 0.777
[9]; first compound 2.53 µM
  relative viability: 1.16
[10]; first compound 0.08 µM
  relative viability: 1.02
[10]; first compound 0.253 µM
  relative viability: 0.748
[10]; first compound 0.8 µM
  relative viability: 0.896
[10]; first compound 2.53 µM
  relative viability: 1.14
[11]; first compound 0.08 µM
  relative viability: 0.994
[11]; first compound 0.253 µM
  relative viability: 0.993
[11]; first compound 0.8 µM
  relative viability: 0.98
[11]; first compound 2.53 µM
  relative viability: 0.988
[12]; first compound 0.08 µM
  relative viability: 1.04
[12]; first compound 0.253 µM
  relative viability: 0.773
[12]; first compound 0.8 µM
  relative viability: 0.958
[12]; first compound 2.53 µM
  relative viability: 0.886
[13]; first compound 0.08 µM
  relative viability: 1.21
[13]; first compound 0.253 µM
  relative viability: 1
[13]; first compound 0.8 µM
  relative viability: 0.939
[13]; first compound 2.53 µM
  relative viability: 1.07
[14]; first compound 0.08 µM
  relative viability: 1.12
[14]; first compound 0.253 µM
  relative viability: 1.17
[14]; first compound 0.8 µM
  relative viability: 1.14
[14]; first compound 2.53 µM
  relative viability: 1.12
[15]; first compound 0.08 µM
  relative viability: 0.905
[15]; first compound 0.253 µM
  relative viability: 0.912
[15]; first compound 0.8 µM
  relative viability: 0.867
[15]; first compound 2.53 µM
  relative viability: 0.878
[16]; first compound 0.08 µM
  relative viability: 0.759
[16]; first compound 0.253 µM
  relative viability: 0.614
[16]; first compound 0.8 µM
  relative viability: 0.747
[16]; first compound 2.53 µM
  relative viability: 0.703
[17]; first compound 0.08 µM
  relative viability: 0.947
[17]; first compound 0.253 µM
  relative viability: 0.895
[17]; first compound 0.8 µM
  relative viability: 0.94
[17]; first compound 2.53 µM
  relative viability: 0.884
[18]; first compound 0.08 µM
  relative viability: 0.614
[18]; first compound 0.253 µM
  relative viability: 0.545
[18]; first compound 0.8 µM
  relative viability: 0.653
[18]; first compound 2.53 µM
  relative viability: 0.477
[19]; first compound 0.08 µM
  relative viability: 0.656
[19]; first compound 0.253 µM
  relative viability: 0.709
[19]; first compound 0.8 µM
  relative viability: 0.877
[19]; first compound 2.53 µM
  relative viability: 0.825
[20]; first compound 0.08 µM
  relative viability: 0.634
[20]; first compound 0.253 µM
  relative viability: 0.552
[20]; first compound 0.8 µM
  relative viability: 0.633
[20]; first compound 2.53 µM
  relative viability: 0.535

## O=c1cc(-c2cccc3c2Sc2ccccc2S3)oc(N2CCOCC2)c1 + Cc1nc(NC(=O)N2CCC[C@H]2C(N)=O)sc1-c1ccnc(C(C)(C)C(F)(F)F)c1 [Alpelisib] (partner 2 µM)
[1]; first compound 0.08 µM
  relative viability: 0.776
[1]; first compound 0.253 µM
  relative viability: 0.824
[1]; first compound 0.8 µM
  relative viability: 0.816
[1]; first compound 2.53 µM
  relative viability: 0.786
[1]; first compound 8 µM
  relative viability: 0.795
[2]; first compound 0.08 µM
  relative viability: 1.1
[2]; first compound 0.253 µM
  relative viability: 1.17
[2]; first compound 0.8 µM
  relative viability: 1.11
[2]; first compound 2.53 µM
  relative viability: 1.07
[2]; first compound 8 µM
  relative viability: 1.08
[3]; first compound 0.08 µM
  relative viability: 0.967
[3]; first compound 0.253 µM
  relative viability: 1.33
[3]; first compound 0.8 µM
  relative viability: 0.951
[3]; first compound 2.53 µM
  relative viability: 0.903
[3]; first compound 8 µM
  relative viability: 1.06
[4]; first compound 0.253 µM
  relative viability: 0.722
[4]; first compound 0.8 µM
  relative viability: 0.741
[4]; first compound 2.53 µM
  relative viability: 0.674
[4]; first compound 8 µM
  relative viability: 0.712
[5]; first compound 0.08 µM
  relative viability: 0.864
[5]; first compound 0.253 µM
  relative viability: 1.09
[5]; first compound 0.8 µM
  relative viability: 0.993
[5]; first compound 2.53 µM
  relative viability: 0.824
[5]; first compound 8 µM
  relative viability: 0.845
[6]; first compound 0.08 µM
  relative viability: 0.588
[6]; first compound 0.253 µM
  relative viability: 0.55
[6]; first compound 0.8 µM
  relative viability: 0.5
[6]; first compound 2.53 µM
  relative viability: 0.469
[6]; first compound 8 µM
  relative viability: 0.594
[7]; first compound 0.08 µM
  relative viability: 0.754
[7]; first compound 0.253 µM
  relative viability: 0.748
[7]; first compound 0.8 µM
  relative viability: 0.719
[7]; first compound 2.53 µM
  relative viability: 0.81
[7]; first compound 8 µM
  relative viability: 0.584
[8]; first compound 0.08 µM
  relative viability: 0.98
[8]; first compound 0.253 µM
  relative viability: 1.04
[8]; first compound 0.8 µM
  relative viability: 1.02
[8]; first compound 2.53 µM
  relative viability: 0.953
[8]; first compound 8 µM
  relative viability: 0.913
[9]; first compound 0.08 µM
  relative viability: 1.05
[9]; first compound 0.253 µM
  relative viability: 0.963
[9]; first compound 0.8 µM
  relative viability: 0.805
[9]; first compound 2.53 µM
  relative viability: 1
[9]; first compound 8 µM
  relative viability: 0.755
[10]; first compound 0.08 µM
  relative viability: 0.867
[10]; first compound 0.253 µM
  relative viability: 1.15
[10]; first compound 0.8 µM
  relative viability: 0.887
[10]; first compound 2.53 µM
  relative viability: 0.786
[10]; first compound 8 µM
  relative viability: 0.984
[11]; first compound 0.08 µM
  relative viability: 0.957
[11]; first compound 0.253 µM
  relative viability: 1.02
[11]; first compound 0.8 µM
  relative viability: 1.01
[11]; first compound 2.53 µM
  relative viability: 0.826
[11]; first compound 8 µM
  relative viability: 0.979
[12]; first compound 0.08 µM
  relative viability: 0.912
[12]; first compound 0.253 µM
  relative viability: 1.06
[12]; first compound 0.8 µM
  relative viability: 1.32
[12]; first compound 2.53 µM
  relative viability: 1
[12]; first compound 8 µM
  relative viability: 1.46
[13]; first compound 0.08 µM
  relative viability: 1.07
[13]; first compound 0.253 µM
  relative viability: 1.08
[13]; first compound 0.8 µM
  relative viability: 1.15
[13]; first compound 2.53 µM
  relative viability: 0.989
[13]; first compound 8 µM
  relative viability: 1.08
[14]; first compound 0.08 µM
  relative viability: 1.04
[14]; first compound 0.253 µM
  relative viability: 1.04
[14]; first compound 0.8 µM
  relative viability: 1.14
[14]; first compound 2.53 µM
  relative viability: 0.987
[14]; first compound 8 µM
  relative viability: 1.05
[15]; first compound 0.08 µM
  relative viability: 0.896
[15]; first compound 0.253 µM
  relative viability: 1.05
[15]; first compound 0.8 µM
  relative viability: 0.89
[15]; first compound 2.53 µM
  relative viability: 0.797
[15]; first compound 8 µM
  relative viability: 0.922
[16]; first compound 0.08 µM
  relative viability: 0.811
[16]; first compound 0.253 µM
  relative viability: 0.904
[16]; first compound 0.8 µM
  relative viability: 0.689
[16]; first compound 2.53 µM
  relative viability: 0.685
[16]; first compound 8 µM
  relative viability: 0.753
[17]; first compound 0.08 µM
  relative viability: 0.722
[17]; first compound 0.253 µM
  relative viability: 0.786
[17]; first compound 0.8 µM
  relative viability: 0.656
[17]; first compound 2.53 µM
  relative viability: 0.498
[17]; first compound 8 µM
  relative viability: 0.452
[18]; first compound 0.08 µM
  relative viability: 0.562
[18]; first compound 0.253 µM
  relative viability: 0.801
[18]; first compound 0.8 µM
  relative viability: 0.752
[18]; first compound 2.53 µM
  relative viability: 0.603
[18]; first compound 8 µM
  relative viability: 0.72
[19]; first compound 0.08 µM
  relative viability: 0.789
[19]; first compound 0.253 µM
  relative viability: 1.13
[19]; first compound 0.8 µM
  relative viability: 0.82
[19]; first compound 2.53 µM
  relative viability: 0.854
[19]; first compound 8 µM
  relative viability: 0.681
[20]; first compound 0.08 µM
  relative viability: 0.736
[20]; first compound 0.253 µM
  relative viability: 0.933
[20]; first compound 0.8 µM
  relative viability: 1.2
[20]; first compound 2.53 µM
  relative viability: 0.551
[20]; first compound 8 µM
  relative viability: 0.691
